From article PMC4579270, “Identification and Characterization of an Irreversible Inhibitor of CDK2” (Chemistry & Biology, 2015)

What was measured:
Test in all cases: Dundee protein kinase screen
Assay type in all cases: biochemical
PRAK = PRAK (Homo sapiens, UniProt Q8IW41); details: read-out: %Remaining activity at 1µM NU6300
Procedure, shortened: (§1)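 Selectivity panel of 131 protein kinases, inhibitor tested at a single concentration of 1 µM; values are % kinase activity remaining, mean of duplicates. Re-test of selected kinases used 0.5 µM in the standard format and again after a 4 hour pre-incubation with the inhibitor.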

RSK1 = RSK1 (Homo sapiens, UniProt Q15418); details: RSK1, 1µM; read-out: %Remaining activity at 1µM NU6300
Procedure, shortened: as §1

TSSK1 = molecular target: T1, TSSK1 (Homo sapiens, UniProt Q9BXA7); details: TSSK1, 1µM; read-out: %Remaining activity at 1µM NU6300
T1 sequence (Q9BXA7 1-367): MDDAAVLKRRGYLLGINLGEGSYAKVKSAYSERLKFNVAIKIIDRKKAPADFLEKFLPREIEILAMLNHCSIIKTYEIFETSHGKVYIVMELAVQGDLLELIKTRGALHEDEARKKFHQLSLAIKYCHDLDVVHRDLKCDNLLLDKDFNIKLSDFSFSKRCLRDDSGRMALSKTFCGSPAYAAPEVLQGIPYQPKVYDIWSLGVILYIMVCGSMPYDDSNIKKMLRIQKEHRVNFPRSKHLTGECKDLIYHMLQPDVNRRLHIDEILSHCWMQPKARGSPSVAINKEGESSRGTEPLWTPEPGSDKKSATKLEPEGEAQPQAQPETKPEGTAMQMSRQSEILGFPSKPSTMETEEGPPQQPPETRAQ
Procedure, shortened: as §1

PAK4 = PAK4 (Homo sapiens, UniProt O96013); details: PAK4, 1µM; read-out: %Remaining activity at 1µM NU6300
Procedure, shortened: as §1

EPH-B2 = EPH-B2 (Homo sapiens, UniProt P29323); details: EPH-B2, 1µM; read-out: %Remaining activity at 1µM NU6300
Procedure, shortened: as §1

p38δ MAPK = p38δ MAPK (Homo sapiens, UniProt O15264); details: read-out: %Remaining activity at 1µM NU6300
Procedure, shortened: as §1

MKK6 = MKK6 (Homo sapiens, UniProt P52564); details: MKK6, 1µM; read-out: %Remaining activity at 1µM NU6300
Procedure, shortened: as §1

ZAP70 = ZAP70 (Homo sapiens, UniProt P43403); details: ZAP70, 1µM; read-out: %Remaining activity at 1µM NU6300
Procedure, shortened: as §1

CK2 = CK2 (Homo sapiens, UniProt P68400); details: CK2, 1µM; read-out: %Remaining activity at 1µM NU6300
Procedure, shortened: as §1

p38α MAPK = p38α MAPK (Homo sapiens, UniProt Q16539); details: read-out: %Remaining activity at 1µM NU6300
Procedure, shortened: as §1

DYRK3 = DYRK3 (Homo sapiens, UniProt O43781); details: DYRK3, 1µM; read-out: %Remaining activity at 1µM NU6300
Procedure, shortened: as §1

MARK3 = MARK3 (Homo sapiens, UniProt P27448); details: MARK3, 1µM; read-out: %Remaining activity at 1µM NU6300
Procedure, shortened: as §1

Sequence of CK2 (P68400 whole entry): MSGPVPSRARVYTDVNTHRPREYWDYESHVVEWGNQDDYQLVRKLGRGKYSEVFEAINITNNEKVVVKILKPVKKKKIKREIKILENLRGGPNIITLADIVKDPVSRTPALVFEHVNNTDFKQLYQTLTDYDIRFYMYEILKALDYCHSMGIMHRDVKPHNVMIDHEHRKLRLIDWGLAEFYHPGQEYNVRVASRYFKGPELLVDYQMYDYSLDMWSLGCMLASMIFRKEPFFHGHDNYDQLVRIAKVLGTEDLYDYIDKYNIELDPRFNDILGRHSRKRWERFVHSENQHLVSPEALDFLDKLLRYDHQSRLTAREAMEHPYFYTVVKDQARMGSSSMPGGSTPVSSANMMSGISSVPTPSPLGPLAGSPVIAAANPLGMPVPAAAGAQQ
Sequence of p38α MAPK (Q16539 whole entry): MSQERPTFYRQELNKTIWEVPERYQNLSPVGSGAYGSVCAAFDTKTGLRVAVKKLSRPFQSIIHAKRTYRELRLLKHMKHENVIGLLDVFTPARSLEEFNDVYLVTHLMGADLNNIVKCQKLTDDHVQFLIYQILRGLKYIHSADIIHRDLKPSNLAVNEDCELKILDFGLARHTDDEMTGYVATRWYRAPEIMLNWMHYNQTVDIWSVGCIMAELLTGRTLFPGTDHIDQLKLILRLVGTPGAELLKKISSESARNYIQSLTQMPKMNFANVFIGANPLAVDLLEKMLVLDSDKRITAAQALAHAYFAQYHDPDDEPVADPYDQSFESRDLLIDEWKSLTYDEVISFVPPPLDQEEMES
Sequence of RSK1 (Q15418 whole entry): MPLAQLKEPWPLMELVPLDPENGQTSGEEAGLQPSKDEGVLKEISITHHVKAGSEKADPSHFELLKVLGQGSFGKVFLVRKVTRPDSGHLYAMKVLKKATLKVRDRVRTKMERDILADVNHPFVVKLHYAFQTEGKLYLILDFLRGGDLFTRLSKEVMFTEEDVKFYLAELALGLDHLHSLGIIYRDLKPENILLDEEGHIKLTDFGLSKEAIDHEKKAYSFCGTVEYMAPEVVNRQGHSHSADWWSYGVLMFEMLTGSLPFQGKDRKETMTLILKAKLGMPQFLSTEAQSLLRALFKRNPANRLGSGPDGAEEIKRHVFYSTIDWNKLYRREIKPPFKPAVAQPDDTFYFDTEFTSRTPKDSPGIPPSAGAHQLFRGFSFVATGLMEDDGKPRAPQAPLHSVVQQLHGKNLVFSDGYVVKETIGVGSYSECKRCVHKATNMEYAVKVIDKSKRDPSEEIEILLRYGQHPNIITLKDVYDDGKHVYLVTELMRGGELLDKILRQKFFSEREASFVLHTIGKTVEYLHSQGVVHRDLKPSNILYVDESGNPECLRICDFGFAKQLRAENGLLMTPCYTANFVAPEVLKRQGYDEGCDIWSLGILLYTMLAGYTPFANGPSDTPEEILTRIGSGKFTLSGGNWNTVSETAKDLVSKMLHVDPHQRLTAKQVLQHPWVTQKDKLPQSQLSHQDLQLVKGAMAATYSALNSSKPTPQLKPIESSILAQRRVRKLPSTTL
Sequence of MARK3 (P27448 whole entry): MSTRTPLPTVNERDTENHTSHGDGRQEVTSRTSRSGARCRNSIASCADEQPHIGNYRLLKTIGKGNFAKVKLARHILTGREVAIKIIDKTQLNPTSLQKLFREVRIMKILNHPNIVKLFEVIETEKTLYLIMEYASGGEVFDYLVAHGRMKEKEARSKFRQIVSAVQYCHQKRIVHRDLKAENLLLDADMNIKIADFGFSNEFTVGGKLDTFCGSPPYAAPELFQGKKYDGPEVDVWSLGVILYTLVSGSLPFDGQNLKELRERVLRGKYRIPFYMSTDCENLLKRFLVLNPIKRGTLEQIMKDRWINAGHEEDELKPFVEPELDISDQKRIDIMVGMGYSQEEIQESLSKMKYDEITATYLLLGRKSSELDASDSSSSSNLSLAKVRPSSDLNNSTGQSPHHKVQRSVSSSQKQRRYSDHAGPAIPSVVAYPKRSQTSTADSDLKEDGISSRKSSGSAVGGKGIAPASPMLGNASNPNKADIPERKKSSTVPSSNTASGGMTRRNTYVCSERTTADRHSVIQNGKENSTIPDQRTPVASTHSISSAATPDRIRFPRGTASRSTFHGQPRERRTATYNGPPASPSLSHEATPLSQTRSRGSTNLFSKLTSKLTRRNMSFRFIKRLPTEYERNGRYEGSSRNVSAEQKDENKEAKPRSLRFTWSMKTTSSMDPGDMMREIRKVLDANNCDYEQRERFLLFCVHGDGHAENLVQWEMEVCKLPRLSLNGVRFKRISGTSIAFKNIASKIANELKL
Sequence of EPH-B2 (P29323 19-1055): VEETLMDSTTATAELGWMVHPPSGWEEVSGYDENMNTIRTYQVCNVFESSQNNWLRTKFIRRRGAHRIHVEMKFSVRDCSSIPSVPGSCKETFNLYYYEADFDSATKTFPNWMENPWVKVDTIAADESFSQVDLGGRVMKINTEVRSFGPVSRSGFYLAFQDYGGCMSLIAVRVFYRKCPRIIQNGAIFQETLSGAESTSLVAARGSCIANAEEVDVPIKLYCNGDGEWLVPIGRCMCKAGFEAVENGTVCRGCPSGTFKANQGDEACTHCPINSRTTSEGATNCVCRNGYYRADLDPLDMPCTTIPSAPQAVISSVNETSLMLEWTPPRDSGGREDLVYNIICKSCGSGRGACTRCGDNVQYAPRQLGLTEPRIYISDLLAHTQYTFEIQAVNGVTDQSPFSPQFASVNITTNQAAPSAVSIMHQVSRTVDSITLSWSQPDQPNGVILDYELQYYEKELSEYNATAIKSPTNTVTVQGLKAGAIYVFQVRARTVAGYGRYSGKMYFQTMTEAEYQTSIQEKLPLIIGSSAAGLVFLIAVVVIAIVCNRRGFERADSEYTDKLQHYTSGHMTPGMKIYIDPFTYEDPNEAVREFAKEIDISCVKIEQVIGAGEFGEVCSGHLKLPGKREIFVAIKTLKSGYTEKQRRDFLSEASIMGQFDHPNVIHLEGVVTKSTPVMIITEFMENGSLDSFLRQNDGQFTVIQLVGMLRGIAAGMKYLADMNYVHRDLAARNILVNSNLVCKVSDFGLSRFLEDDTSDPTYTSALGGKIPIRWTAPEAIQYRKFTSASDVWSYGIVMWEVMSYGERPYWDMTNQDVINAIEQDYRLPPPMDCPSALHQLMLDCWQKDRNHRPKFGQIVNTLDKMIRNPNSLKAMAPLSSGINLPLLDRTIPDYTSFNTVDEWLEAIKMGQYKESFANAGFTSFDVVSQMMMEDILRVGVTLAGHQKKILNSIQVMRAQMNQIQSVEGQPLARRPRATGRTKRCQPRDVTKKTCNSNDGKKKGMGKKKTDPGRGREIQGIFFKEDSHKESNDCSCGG
Sequence of PRAK (Q8IW41 whole entry): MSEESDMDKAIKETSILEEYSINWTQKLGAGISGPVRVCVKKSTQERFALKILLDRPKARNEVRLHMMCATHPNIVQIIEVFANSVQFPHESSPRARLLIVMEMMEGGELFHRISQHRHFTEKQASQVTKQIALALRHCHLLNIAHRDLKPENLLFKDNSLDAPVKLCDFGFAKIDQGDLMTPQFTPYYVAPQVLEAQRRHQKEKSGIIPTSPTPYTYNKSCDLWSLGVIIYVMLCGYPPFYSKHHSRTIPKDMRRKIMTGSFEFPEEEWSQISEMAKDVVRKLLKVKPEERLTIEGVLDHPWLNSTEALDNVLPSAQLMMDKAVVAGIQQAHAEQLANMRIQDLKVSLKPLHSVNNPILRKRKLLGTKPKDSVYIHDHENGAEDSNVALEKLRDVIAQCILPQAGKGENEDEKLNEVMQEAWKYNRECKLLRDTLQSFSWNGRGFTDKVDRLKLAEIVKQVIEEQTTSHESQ
Sequence of DYRK3 (O43781 whole entry): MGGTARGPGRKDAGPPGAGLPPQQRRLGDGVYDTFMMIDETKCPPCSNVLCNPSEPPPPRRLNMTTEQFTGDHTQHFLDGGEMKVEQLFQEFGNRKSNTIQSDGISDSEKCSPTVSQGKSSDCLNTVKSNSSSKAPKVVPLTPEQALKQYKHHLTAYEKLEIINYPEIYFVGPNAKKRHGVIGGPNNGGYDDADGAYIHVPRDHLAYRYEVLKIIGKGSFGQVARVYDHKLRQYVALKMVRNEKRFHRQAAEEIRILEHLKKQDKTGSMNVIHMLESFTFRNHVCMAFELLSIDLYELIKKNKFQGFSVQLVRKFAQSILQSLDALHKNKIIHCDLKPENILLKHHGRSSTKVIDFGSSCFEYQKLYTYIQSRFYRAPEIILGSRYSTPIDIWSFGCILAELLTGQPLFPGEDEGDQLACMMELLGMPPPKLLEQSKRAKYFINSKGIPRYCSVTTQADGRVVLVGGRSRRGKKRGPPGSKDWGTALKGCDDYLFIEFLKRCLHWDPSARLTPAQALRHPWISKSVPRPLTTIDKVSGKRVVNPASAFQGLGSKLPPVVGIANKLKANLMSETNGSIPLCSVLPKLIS
Sequence of p38δ MAPK (O15264 whole entry): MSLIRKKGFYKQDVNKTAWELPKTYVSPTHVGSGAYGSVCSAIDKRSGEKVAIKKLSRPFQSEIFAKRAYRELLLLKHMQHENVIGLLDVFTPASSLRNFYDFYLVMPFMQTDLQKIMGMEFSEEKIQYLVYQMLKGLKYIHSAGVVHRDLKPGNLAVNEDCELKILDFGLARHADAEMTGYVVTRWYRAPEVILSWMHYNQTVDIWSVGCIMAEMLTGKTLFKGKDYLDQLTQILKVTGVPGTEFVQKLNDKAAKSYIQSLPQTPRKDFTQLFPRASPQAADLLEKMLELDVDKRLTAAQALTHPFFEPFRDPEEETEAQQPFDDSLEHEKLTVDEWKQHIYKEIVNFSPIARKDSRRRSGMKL

**Q.** Which results are given for `C=CS(=O)(=O)c1ccc(Nc2nc(OCC3CCCCC3)c3nc[nH]c3n2)cc1` [NU6300, 6-(cyclohexylmethoxy)-N-(4-(vinylsulfonyl)phenyl)-9H-purin-2-amine]?
**A.** remaining activity at 1 µM (PRAK): 77%; remaining activity at 1 µM (RSK1): 50%; remaining activity at 1 µM (TSSK1): 26%; remaining activity at 1 µM (PAK4): 35%; remaining activity at 1 µM (EPH-B2): 96%; remaining activity at 1 µM (p38δ MAPK): 92%; remaining activity at 1 µM (MKK6): 85%; remaining activity at 1 µM (ZAP70): 90%; remaining activity at 1 µM (CK2): 91%; remaining activity at 1 µM (p38α MAPK): 81%; remaining activity at 1 µM (DYRK3): 91%; remaining activity at 1 µM (MARK3): 71%
